The record followed here is PMC9639207 (RSC Advances, 2022).

A short description of series [1]: In vitro stability on incubation with mouse serum. In kind it is in vitro ADME. Particulars: mouse, serum.
Series [2] deals with dipeptidyl peptidase-IV (DPP-IV) (Homo sapiens, UniProt P27487). As to the kind of experiment: In vitro proteolytic stability against DPP-IV. The series is classed as in vitro ADME. Particulars: isolated enzyme dpp iv, pH 7.4.

Structures are written as SMILES.

Sequence of dipeptidyl peptidase-IV (DPP-IV) (P27487 whole entry, species assumed): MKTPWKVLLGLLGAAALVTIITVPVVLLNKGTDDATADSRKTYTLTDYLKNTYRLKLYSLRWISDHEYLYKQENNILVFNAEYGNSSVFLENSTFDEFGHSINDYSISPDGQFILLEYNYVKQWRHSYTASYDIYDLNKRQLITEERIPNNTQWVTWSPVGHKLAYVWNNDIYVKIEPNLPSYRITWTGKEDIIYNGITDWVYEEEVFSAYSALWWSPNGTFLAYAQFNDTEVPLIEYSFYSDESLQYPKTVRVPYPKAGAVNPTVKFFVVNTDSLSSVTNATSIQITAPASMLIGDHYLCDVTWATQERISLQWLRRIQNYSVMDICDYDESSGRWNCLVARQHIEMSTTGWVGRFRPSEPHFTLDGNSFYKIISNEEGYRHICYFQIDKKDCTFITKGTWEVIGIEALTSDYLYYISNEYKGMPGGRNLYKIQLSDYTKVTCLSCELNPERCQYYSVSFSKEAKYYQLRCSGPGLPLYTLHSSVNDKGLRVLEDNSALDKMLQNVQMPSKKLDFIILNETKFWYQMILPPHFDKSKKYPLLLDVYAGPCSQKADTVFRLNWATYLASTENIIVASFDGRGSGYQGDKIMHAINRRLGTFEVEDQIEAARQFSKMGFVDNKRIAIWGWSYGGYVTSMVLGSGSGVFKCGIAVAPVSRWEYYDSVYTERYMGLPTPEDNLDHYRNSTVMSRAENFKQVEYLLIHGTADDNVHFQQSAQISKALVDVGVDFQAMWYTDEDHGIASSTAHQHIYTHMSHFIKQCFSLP

Take `CC[C@H](C)[C@H](NC(=O)[C@H](Cc1ccccc1)NC(=O)[C@H](CCC(=O)O)NC(=O)[C@H](CCCCN)NC(=O)[C@H](C)NC(=O)[C@H](C)NC(=O)[C@H](CCC(N)=O)NC(=O)CNC(=O)[C@H](CCC(=O)O)NC(=O)[C@H](CC(C)C)NC(=O)[C@H](Cc1ccc(O)cc1)NC(=O)[C@H](CO)NC(=O)[C@H](CO)NC(=O)[C@@H](NC(=O)[C@H](CC(=O)O)NC(=O)[C@H](CO)NC(=O)[C@@H](NC(=O)[C@H](Cc1ccccc1)NC(=O)[C@@H](NC(=O)CNC(=O)[C@H](CCC(=O)O)NC(=O)[C@H](C)NC(=O)[C@@H](N)Cc1c[nH]cn1)[C@@H](C)O)[C@@H](C)O)C(C)C)C(=O)N[C@@H](C)C(=O)N[C@@H](Cc1c[nH]c2ccccc12)C(=O)N[C@@H](CC(C)C)C(=O)N[C@H](C(=O)N[C@@H](CC(=O)N[C@@H]1O[C@H](CO)[C@@H](O[C@@H]2O[C@H](CO)[C@@H](O[C@@H]3O[C@H](CO[C@H]4O[C@H](CO)[C@@H](O)[C@H](O)[C@@H]4O[C@@H]4O[C@H](CO)[C@@H](O[C@@H]5O[C@H](CO)[C@H](O)[C@H](O)[C@H]5O)[C@H](O)[C@H]4NC(C)=O)[C@@H](O)[C@H](O[C@H]4O[C@H](CO)[C@@H](O)[C@H](O)[C@@H]4O[C@@H]4O[C@H](CO)[C@@H](O[C@@H]5O[C@H](CO)[C@H](O)[C@H](O)[C@H]5O)[C@H](O)[C@H]4NC(C)=O)[C@@H]3O)[C@H](O)[C@H]2NC(C)=O)[C@H](O)[C@H]1O)C(=O)NCC(=O)N[C@H](C(=O)NCC(=O)O)[C@@H](C)O)C(C)C` [Glycan-GLP-1-5(G2)]: the half-life at 200 µM in series [1] stood at 6.51 ± 0.225 h. For the same molecule, in series [2], the half-life is 3.0333 ± 0.00167 h.

`CC[C@H](C)[C@H](NC(=O)[C@H](Cc1ccccc1)NC(=O)[C@H](CCC(=O)O)NC(=O)[C@H](CCCCN)NC(=O)[C@H](C)NC(=O)[C@H](C)NC(=O)[C@H](CCC(N)=O)NC(=O)CNC(=O)[C@H](CCC(=O)O)NC(=O)[C@H](CC(C)C)NC(=O)[C@H](Cc1ccc(O)cc1)NC(=O)[C@H](CO)NC(=O)[C@H](CO)NC(=O)[C@@H](NC(=O)[C@H](CC(=O)N[C@@H]1O[C@H](CO)[C@@H](O[C@@H]2O[C@H](CO)[C@@H](O[C@@H]3O[C@H](CO[C@H]4O[C@H](CO)[C@@H](O)[C@H](O)[C@@H]4O[C@@H]4O[C@H](CO)[C@@H](O[C@@H]5O[C@H](CO[C@]6(C(=O)O)C[C@H](O)[C@@H](NC(C)=O)[C@H]([C@H](O)[C@H](O)CO)O6)[C@H](O)[C@H](O)[C@H]5O)[C@H](O)[C@H]4NC(C)=O)[C@@H](O)[C@H](O[C@H]4O[C@H](CO)[C@@H](O)[C@H](O)[C@@H]4O[C@@H]4O[C@H](CO)[C@@H](O[C@@H]5O[C@H](CO[C@]6(C(=O)O)C[C@H](O)[C@@H](NC(C)=O)[C@H]([C@H](O)[C@H](O)CO)O6)[C@H](O)[C@H](O)[C@H]5O)[C@H](O)[C@H]4NC(C)=O)[C@@H]3O)[C@H](O)[C@H]2NC(C)=O)[C@H](O)[C@H]1O)NC(=O)[C@H](CO)NC(=O)[C@@H](NC(=O)[C@H](Cc1ccccc1)NC(=O)[C@@H](NC(=O)CNC(=O)[C@H](CCC(=O)O)NC(=O)[C@H](C)NC(=O)[C@@H](N)Cc1c[nH]cn1)[C@@H](C)O)[C@@H](C)O)C(C)C)C(=O)N[C@@H](C)C(=O)N[C@@H](Cc1c[nH]c2ccccc12)C(=O)N[C@@H](CC(C)C)C(=O)N[C@H](C(=O)N[C@@H](CCCCN)C(=O)NCC(=O)N[C@@H](CCCNC(=N)N)C(=O)NCC(=O)O)C(C)C` [Glycan-GLP-1-1(G2S2)] yielded a half-life at 200 µM in series [1] of 12.3 ± 0.205 h. The same molecule displayed a half-life in series [2] of 2.43 ± 0.0717 h.

For the molecule `CC[C@H](C)[C@H](NC(=O)[C@H](Cc1ccccc1)NC(=O)[C@H](CCC(=O)O)NC(=O)[C@H](CCCCN)NC(=O)[C@H](C)NC(=O)[C@H](C)NC(=O)[C@H](CCC(N)=O)NC(=O)CNC(=O)[C@H](CCC(=O)O)NC(=O)[C@H](CC(C)C)NC(=O)[C@H](Cc1ccc(O)cc1)NC(=O)[C@H](CO)NC(=O)[C@H](CO)NC(=O)[C@@H](NC(=O)[C@H](CC(=O)N[C@@H]1O[C@H](CO)[C@@H](O)[C@H](O)[C@H]1O)NC(=O)[C@H](CO)NC(=O)[C@@H](NC(=O)[C@H](Cc1ccccc1)NC(=O)[C@@H](NC(=O)CNC(=O)[C@H](CCC(=O)O)NC(=O)[C@H](C)NC(=O)[C@@H](N)Cc1c[nH]cn1)[C@@H](C)O)[C@@H](C)O)C(C)C)C(=O)N[C@@H](C)C(=O)N[C@@H](Cc1c[nH]c2ccccc12)C(=O)N[C@@H](CC(C)C)C(=O)N[C@H](C(=O)N[C@@H](CCCCN)C(=O)NCC(=O)N[C@@H](CCCNC(=N)N)C(=O)NCC(=O)O)C(C)C` [Glc-GLP-1-1], the half-life at 200 µM in series [1] was 1.57 ± 0.127 h. The molecule further returned a half-life in series [2] of 0.503 ± 0.04 h.
